Assay results from patent US12643867B2, “Compositions and uses thereof” (University of Virginia Patent Foundation, priority 2017, dated 2026).

What was measured:
[1] = biological target: T1, IRAK1 (Interleukin-1 receptor-associated kinase 1) (Homo sapiens, UniProt P51617); test: SILAC LC-MS ATP acyl phosphate probe competition, native kinases in HEK293T; format: binding; details: site Lys2; ATP 1 mM; Ketanserin, Ritanserin 100 μM; RF001 1 mM
T1 construct: measured against >50 native kinases quantified in HEK293T soluble proteomes; endogenous in cells; host or cells: HEK293T soluble proteome
Experimental: (§1) Proteomes were diluted to 2 mg/ml in kinase buffer. The light and heavy proteomes (0.5 mg, 250 μL total reaction volume) were pre-treated with vehicle or compound, respectively (5 μL, DMSO (light) or 50× stock in DMSO (heavy)), mixed gently, and incubated at 25° C. for 30 min. […] After incubation, matched light and heavy proteomes were transferred and mixed in a 1:1 ratio in a two-dram vial containing 4:1:3 MeOH/CHCl3/H2O (2 mL MeOH, 500 AL CHCl3, 1.5 mL H2O) for extraction of proteins to remove excess probe, quickly vortexed, and centrifuged at 1,400×g for 3 min to pellet protein. Organic and aqueous layers were removed using a Pasteur pipette, and the protein pellet was transferred to a screw-top tube in 600 μL MeOH. A second extraction was performed by adding CHCl3 (150 μL) and H2O (600 μL) to each sample, vortexed, and centrifuged at 1,400×g for 3 min to pellet protein. Organic and aqueous layers were removed by pipetting. MeOH added to pellet (600 μL) and pellets were re-suspended by sonication (3×1 sec pulse, 20% amplitude) for a final extraction. Samples were then centrifuged at 17,000×g for 5 min to pellet protein and MeOH was removed by pipetting. The pellets were re-suspended in 10 M urea/25 mM ammonium bicarbonate ([…]), brought to a final volume of 1 mL with 25 mM ammonium bicarbonate, reduced with 10 mM DTT for 15 min at 65° C. allowed to cool, and then alkylated with 40 mM iodoacetamide for 30 min at 25° C. in the dark. To desalt the samples, each was transferred to a two-dram glass vial, and to the vial 4:1:2 MeOH/CHCl3/H2O (2 mL MeOH, 500 AL CHCl3, 1 mL H2O) was added. The vials were vortexed quickly, spun at 1.400×g for 3 min to pellet protein, and aqueous and organic layers were removed using a Pasteur pipette. The resulting protein pellet was transferred to a screw-top tube in 600 μL MeOH, and then CHCl3 (150 μL) and HO (600 μL) were added to extract protein a second time. The samples were vortexed quickly, centrifuged at 1,400×g to pellet protein, and the aqueous and organic layers were removed by pipetting. Resulting protein pellet was suspended in MeOH (600 μL) via sonication (3×1 sec pulse, 20% amplitude), centrifuged at 17,000×g for 5 min to pellet protein, and MeOH removed by pipetting. Protein pellets were then re-suspended in 25 mM ammonium bicarbonate (500 μL) and digested with 7.5 μg Trypsin/Lys-C(Promega, 15 μL, 0.5 μg/μL) for 3 h at 37° C. Avidin-agarose beads (Thermo Scientific Pierce, 100 AL aliquot per sample) were washed three times by adding 10 mL DPBS, centrifuged at 1,400×g for 1 min, and decanting. This wash step was repeated for a total of 3 times. Digested protein samples were mixed with washed avidin beads (100 μL) and brought to a volume of 5.5 mL with DPBS in a 15 mL conical and rotated for 1 h to enrich samples for the covalent desthiobiotin modification. The beads were washed with 25 mM ammonium bicarbonate (3× with 10 mL, centrifuge at 1,400×g for 3 min, decant) and then H2O (3× with 10 mL, centrifuge at 1,400×g for 3 min, decant). Washed beads were then transferred to a low-bind microfuge tube, centrifuged at 1,400×g for 3 min, allowed to rest for 1 min to settle beads, and then excess H2O was removed carefully using a gel-loading pipette tip. To elute peptides, 100 μL of elution buffer (50% acetonitrile, ACN; 0.1% formic acid) was added to each sample and incubated for 3 min. Beads were spun down at 1.400×g for 3 min, allowed to rest for 1 min to settle beads, and then 75 μL of peptide-containing supernatant was removed carefully using a gel-loading pipette tip and transferred to a new low bind centrifuge tube. This step was repeated two more times with 75 μL of elution buffer and all eluent were collected into the same centrifuge tube (˜225 μL total). Peptides were dried on a speed vacuum, resulting peptide samples acidified in 5% (v/v) formic acid, and stored at −80° C. until analysis.
(§2) The peptide samples were analyzed by liquid chromatography-mass spectrometry. […]

[2] = biological target: T2, LATS1 (Serine/threonine-protein kinase LATS1) (Homo sapiens, UniProt O95835); test: as above; format: binding; details: site Lys1; ATP 1 mM; Ketanserin, Ritanserin 100 μM; RF001 1 mM
T2 construct: Native kinases; endogenous in cells; host or cells: HEK293T soluble proteome
T2 sequence (O95835 1-1130): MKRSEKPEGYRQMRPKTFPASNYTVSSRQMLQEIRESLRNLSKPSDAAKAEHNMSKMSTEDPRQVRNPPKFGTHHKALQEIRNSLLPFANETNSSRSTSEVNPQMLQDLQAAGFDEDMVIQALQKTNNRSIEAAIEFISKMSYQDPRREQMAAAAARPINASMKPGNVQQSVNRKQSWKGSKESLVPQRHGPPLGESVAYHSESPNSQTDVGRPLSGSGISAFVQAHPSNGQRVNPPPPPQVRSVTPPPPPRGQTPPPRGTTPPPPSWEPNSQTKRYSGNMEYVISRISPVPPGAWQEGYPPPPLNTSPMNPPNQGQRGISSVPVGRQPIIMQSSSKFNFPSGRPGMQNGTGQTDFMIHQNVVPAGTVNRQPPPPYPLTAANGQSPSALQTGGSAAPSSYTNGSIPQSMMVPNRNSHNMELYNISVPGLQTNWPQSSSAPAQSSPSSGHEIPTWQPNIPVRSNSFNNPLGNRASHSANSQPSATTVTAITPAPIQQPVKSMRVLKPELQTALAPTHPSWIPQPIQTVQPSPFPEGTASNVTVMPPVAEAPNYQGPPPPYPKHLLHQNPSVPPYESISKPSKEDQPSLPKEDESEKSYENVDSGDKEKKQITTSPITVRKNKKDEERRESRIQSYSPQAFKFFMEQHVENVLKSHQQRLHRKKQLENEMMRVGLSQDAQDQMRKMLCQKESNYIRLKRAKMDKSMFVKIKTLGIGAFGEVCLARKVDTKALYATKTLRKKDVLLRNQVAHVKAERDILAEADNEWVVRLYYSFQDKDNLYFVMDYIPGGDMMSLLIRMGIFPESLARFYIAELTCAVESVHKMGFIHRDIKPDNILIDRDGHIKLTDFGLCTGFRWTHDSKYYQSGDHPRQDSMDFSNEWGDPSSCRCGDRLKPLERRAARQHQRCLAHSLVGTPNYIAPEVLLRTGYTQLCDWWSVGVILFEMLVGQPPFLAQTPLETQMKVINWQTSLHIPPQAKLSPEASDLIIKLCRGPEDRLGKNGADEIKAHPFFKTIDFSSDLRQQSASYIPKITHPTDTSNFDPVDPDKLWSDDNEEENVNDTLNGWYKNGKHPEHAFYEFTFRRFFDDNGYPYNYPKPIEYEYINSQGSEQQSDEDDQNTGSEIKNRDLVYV
Experimental: as §1, §2

T1 sequence (P51617 whole entry): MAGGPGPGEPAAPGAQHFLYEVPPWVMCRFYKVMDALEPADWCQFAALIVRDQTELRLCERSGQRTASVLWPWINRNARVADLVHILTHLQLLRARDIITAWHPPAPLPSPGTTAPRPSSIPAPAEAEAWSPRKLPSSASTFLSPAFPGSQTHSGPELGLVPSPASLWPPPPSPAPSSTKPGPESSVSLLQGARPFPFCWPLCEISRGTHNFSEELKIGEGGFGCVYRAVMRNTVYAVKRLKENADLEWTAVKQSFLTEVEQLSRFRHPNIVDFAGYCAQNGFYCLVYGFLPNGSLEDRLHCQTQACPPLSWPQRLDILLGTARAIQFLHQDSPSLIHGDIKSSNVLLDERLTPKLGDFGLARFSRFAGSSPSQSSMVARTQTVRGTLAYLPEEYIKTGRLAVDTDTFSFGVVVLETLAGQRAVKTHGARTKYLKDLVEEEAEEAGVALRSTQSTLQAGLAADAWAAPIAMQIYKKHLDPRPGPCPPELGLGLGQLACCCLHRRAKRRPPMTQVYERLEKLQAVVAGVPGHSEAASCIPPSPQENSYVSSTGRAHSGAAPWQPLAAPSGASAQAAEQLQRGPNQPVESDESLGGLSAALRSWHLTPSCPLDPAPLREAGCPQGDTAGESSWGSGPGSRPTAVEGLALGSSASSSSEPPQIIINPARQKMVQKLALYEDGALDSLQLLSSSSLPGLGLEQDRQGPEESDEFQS

| SILAC ratio, IRAK1 probe-modified peptide [1] | SILAC ratio, LATS1 probe-modified peptide [2] | Structure (SMILES) |
| --- | --- | --- |
| 1.4 | 1.2 | O=C(c1ccc(F)cc1)C1CCN(CCn2c(=O)[nH]c3ccccc3c2=O)CC1 [Ketanserin] |
| 2.2 | 1.4 | Fc1ccc(C(=C2CCNCC2)c2ccc(F)cc2)cc1 [RF001, 4-(Bis(4-fluorophenyl)methylene) piperidine] |

| Structure (SMILES) | SILAC ratio, IRAK1 probe-modified peptide [1] | SILAC ratio, LATS1 probe-modified peptide [2] |
| --- | --- | --- |
| Cc1nc2sccn2c(=O)c1CCN1CCC(=C(c2ccc(F)cc2)c2ccc(F)cc2)CC1 [Ritanserin] | 2.6 | 1.8 |
